Reference: PubChem BioAssay AID1963958 (Molecular Pharmacology Branch, DTP, NCI, 2024)

System: MDA-MB-231 multicell spheroids, viability
Assay: Anticancer human tumor MDA-MB-231 cell line growth inhibition [PI3K];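 further: spheroids exposed to agents for seven days before reading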;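 on viability, T/C: percent of vehicle control luminescence with DMSO treated spheroids as 100%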
Details: for IC50: curve of first compound; for viability, T/C: stronger effect = lower value
In short: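 Tumor cells were combined with HUVEC and MSCs into spheroids, then dosed with PI3K-inhibitor combinations over half-log ranges capped near clinical Cmax or 10 microM.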

Question: For `CCN1CCN(Cc2ccc(Nc3ncc(F)c(-c4cc(F)c5nc(C)n(C(C)C)c5c4)n3)nc2)CC1` + CC(Nc1ncnc2nc[nH]c12)c1cc2cccc(Cl)c2c(=O)n1-c1ccccc1, which IC50 (second compound 0.0316 µM) is on record?
Answer: > 1000 nM

Question: And the IC50 (second compound 0.1 µM)?
Answer: > 1000 nM

Question: And the IC50 (second compound 0.316 µM)?
Answer: 988 nM

Question: What about the IC50 (second compound 1 µM) of the same compound?
Answer: 85.4 nM

Question: What about the IC50 (second compound 3.16 µM) of the same compound?
Answer: 20.1 nM

Question: What about the IC50 (second compound 10 µM) of the same compound?
Answer: < 3.16 nM

Question: And the viability, T/C (second compound 0.0316 µM, first compound 0.00316 µM)?
Answer: 96.7%

Question: And the viability, T/C (second compound 0.0316 µM, first compound 0.01 µM)?
Answer: 93.2%

Question: And the viability, T/C (second compound 0.0316 µM, first compound 0.0316 µM)?
Answer: 81.4%

Question: What about the viability, T/C (second compound 0.0316 µM, first compound 0.1 µM) of the same compound?
Answer: 58.9%

Question: And the viability, T/C (second compound 0.0316 µM, first compound 0.316 µM)?
Answer: 57.1%

Question: And the viability, T/C (second compound 0.0316 µM, first compound 1 µM)?
Answer: 56.8%

Question: And the viability, T/C (second compound 0.1 µM, first compound 0.00316 µM)?
Answer: 98.2%

Question: And the viability, T/C (second compound 0.1 µM, first compound 0.01 µM)?
Answer: 84.4%

Question: What about the viability, T/C (second compound 0.1 µM, first compound 0.0316 µM) of the same compound?
Answer: 79%

Question: What about the viability, T/C (second compound 0.1 µM, first compound 0.1 µM) of the same compound?
Answer: 59.1%

Question: What about the viability, T/C (second compound 0.1 µM, first compound 0.316 µM) of the same compound?
Answer: 55%

Question: And the viability, T/C (second compound 0.1 µM, first compound 1 µM)?
Answer: 51.9%

Question: And the viability, T/C (second compound 0.316 µM, first compound 0.00316 µM)?
Answer: 92.9%

Question: And the viability, T/C (second compound 0.316 µM, first compound 0.01 µM)?
Answer: 80.7%

Question: And the viability, T/C (second compound 0.316 µM, first compound 0.0316 µM)?
Answer: 71.2%

Question: And the viability, T/C (second compound 0.316 µM, first compound 0.1 µM)?
Answer: 56.8%

Question: What about the viability, T/C (second compound 0.316 µM, first compound 0.316 µM) of the same compound?
Answer: 47.4%

Question: And the viability, T/C (second compound 0.316 µM, first compound 1 µM)?
Answer: 53.5%

Question: And the viability, T/C (second compound 1 µM, first compound 0.00316 µM)?
Answer: 78.4%

Question: What about the viability, T/C (second compound 1 µM, first compound 0.01 µM) of the same compound?
Answer: 70.8%

Question: And the viability, T/C (second compound 1 µM, first compound 0.0316 µM)?
Answer: 53.6%

Question: And the viability, T/C (second compound 1 µM, first compound 0.1 µM)?
Answer: 47.8%

Question: And the viability, T/C (second compound 1 µM, first compound 0.316 µM)?
Answer: 50.3%

Question: What about the viability, T/C (second compound 1 µM, first compound 1 µM) of the same compound?
Answer: 49.6%

Question: And the viability, T/C (second compound 3.16 µM, first compound 0.00316 µM)?
Answer: 62.1%

Question: And the viability, T/C (second compound 3.16 µM, first compound 0.01 µM)?
Answer: 54.5%

Question: What about the viability, T/C (second compound 3.16 µM, first compound 0.0316 µM) of the same compound?
Answer: 49%

Question: What about the viability, T/C (second compound 3.16 µM, first compound 0.1 µM) of the same compound?
Answer: 36.8%

Question: What about the viability, T/C (second compound 3.16 µM, first compound 0.316 µM) of the same compound?
Answer: 40.5%

Question: And the viability, T/C (second compound 3.16 µM, first compound 1 µM)?
Answer: 46.7%

Question: And the viability, T/C (second compound 10 µM, first compound 0.00316 µM)?
Answer: 46.5%

Question: What about the viability, T/C (second compound 10 µM, first compound 0.01 µM) of the same compound?
Answer: 40.7%

Question: What about the viability, T/C (second compound 10 µM, first compound 0.0316 µM) of the same compound?
Answer: 37.2%

Question: What about the viability, T/C (second compound 10 µM, first compound 0.1 µM) of the same compound?
Answer: 29.3%

Question: And the viability, T/C (second compound 10 µM, first compound 0.316 µM)?
Answer: 41.1%

Question: What about the viability, T/C (second compound 10 µM, first compound 1 µM) of the same compound?
Answer: 49.6%
